Entries after “also recorded” stand apart in the source; their conditions may differ. [5mC] = 5-methylcytosine

One series deals with E.G7-OVA. The experiment in a line: prophylactic efficacy of OVA / OVA257-264 vaccination, E.G7-OVA model. Format: in vivo, C57/BL6 mice. As to conditions: LNA (encapsulated) forms; FIG. 35. The protocol:
Vaccinations. B6 mice were vaccinated subcutaneously (SC) with […] per injection. Dosing schedules were either q7dx2 or q4dx4 and are indicated in the individual figure legends. CFA mixtures were very viscous and had to be given with a larger gauge syringe. For humoral studies, a prime (day 0) and boost (day 14) strategy was used and blood samples were collected at various times by tail nicking.
Efficacy studies. E.G7-OVA or EL-4 thymoma cell lines were used throughout the study. These cells were cultured in vitro according to established methods. For tumor studies, 2.5×106 E.G7-OVA cells were injected subcutaneously in […] of PBS containing 1% FCS. Tumor measurements were made by repeated perpendicular measurements of tumor dimensions and using the formula: […]
Full-length OVA and the immunodominant cytotoxic T lymphocyte (CTL) peptide epitope (OVA257-264) were used to evaluate cell mediated immune responses and the prophylactic and therapeutic efficacy of OVA vaccination against the E.G7-OVA transfected cell line, using LNA both as an adjuvant and as the basis for a cancer vaccine formulation. LNA formulations for this experiment were prepared using DSPC:Chol:DODAP:PEGCer14 at a ration of 25:45:20:10
The anti-tumor activity of OVA and OVA257-264 were examined against the murine thymoma cell line, E.G7-OVA, implanted subcutaneously (SC) in C57/BL6 mice. […] Given the activity observed with the protein or peptide alone, this dose and schedule represents a useful model to evaluate adjuvants designed to boost the immune response against OVA and/or OVA257-264.
To examine LNA formulations as adjuvants, the impact of three variables were evaluated on vaccination and efficacy in the prophylactic E.G7-OVA model: (1) the activity of free vs. encapsulated ODN 1, (2) phosphodiester (PO) vs phosphorothioate (PS) ODN, and (3) full-length OVA protein vs single-epitope peptide OVA257-264 (FIGS. 30A and B). In this set of studies, free and encapsulated ODN 1 was simply mixed with antigen and administered SC near the nape of the neck. ODN and antigen doses in these studies were […], respectively.

Series [1] deals with dendritic cells. The experiment in a line: expansion of dendritic cells (CD11c, DEC205) in spleen, blood and lymph nodes. The settings on record: lipid encapsulated; single i.v. injection 20 mg/kg; versus PBS control = 100%; 20 mg/kg. Format: in vivo, ICR mice. As to the method:
ICR mice were immunized with a single intravenous injection of encapsulated oligonucleotides at a dose of 20 mg/kg and the control ICR mouse was injected with PBS. […] Each of these markers are specific to dendritic cells though they may represent different cell sub-populations. In each of FIGS. 4 and 5 the control was plotted as equivalent to 100% and the effect of ODN1m for each backbone configuration was plotted as a percentage of that control.

Series [2] concerns dendritic cells. Kind of series: in vivo dendritic cell activation (IFN-γ secreting cells). The settings on record: encapsulated in POPC:CHOL:DODMA:PEGDMG 20:45:25:10. As to the method:
PBS was used as a control.
FIG. 3 clearly illustrates the ability of encapsulated ODN1m to activate dendritic cells. […] Dendritic cell activation was measured by the percentage of IFN-γ secreting cells. These cells were labeled with an antibody to indicate the cell type and only those having the dendritic cell marker were included in this measurement.

Series [3] has as its system EG.7 Ova expressing tumor cells. The experiment in a line: prophylactic anti-tumor efficacy, EG7-OVA tumor model, q7d×3. It counts as in vivo, C57BI/6 mice. As to the method:
Efficacy studies. E.G7-OVA or EL-4 thymoma cell lines were used throughout the study. These cells were cultured in vitro according to established methods. […] Tumor measurements were made by repeated perpendicular measurements of tumor dimensions and using the formula: […]
Anti-tumor efficacy induced by subcutaneous immunization was assessed in C57BI/6 (5 animals per group) in a prophylactic immunization model. Mice were immunized subcutaneously with 3 injections on a q7d×3 dosing regimen on Days 0, 7 and 14 at a dose of 100 μg oligonucleotide and 20 μg of OVA antigen dose. […] Mice were monitored 3 times weekly to assess tumor growth and weight gain. Control mice were injected with one of PBS or HBS and […] of OVA antigen on the same schedule described above. Oligonucleotides were encapsulated in a lipid particle having a lipid composition of one of POPC: CHOL: DODAP:PEGCer14 or DSPC: CHOL: DODAP:PEGCer14 each in a ratio of 25:45:20:10. All comparisons of methylated and unmethylated oligonucleotides were done using like lipid particles. Results from these efficacy experiments are detailed in FIGS. 12-15, 18-21, and 25-28. Day 0 on each of the Figures is the day each animal was challenged with the tumor.

For “ODN1m: 5′-TAAZGTTGAGGGGCAT-3, SEQ ID NO: 4, Z = methylated cytosine (DNA TAACGTTGAGGGGCAT; DNA, [5mC] at 4, backbone not given here; tested with both phosphodiester and phosphorothioate backbones)”, the “efficacy of ODN sequences” value in the series on E.G7-OVA is on record as “strongest responses”. In the series on dendritic cells [1], the “expansion of CD11c positive dendritic cells” value is “stimulated the expansion of CD11c positive dendritic cells in spleen cells and whole blood cells but not in lymphoid tissue; also recorded: stimulated the expansion of CD11c positive cells in spleen and whole blood”. The “dendritic cell activation (percentage of IFN-γ secreting cells)” value in the series on dendritic cells [2] is “more active than its unmethylated counterpart; also recorded: more active than the unmethylated counterpart ODN1”. Moreover, the “reduction in tumor growth” value is reported as “approached the rate of the control animal” in series [3] (free ODN, 100 μg ODN + 20 μg OVA s.c. q7d×3, tumor challenge Day 21); “therapeutic efficacy was greatest with the methylated version 32 days after transplantation” in series [3] (lipid encapsulated ODN, PO backbone, 100 μg ODN + 20 μg OVA s.c. q7d×3); “equal in therapeutic efficacy in comparison to the unmethylated ODN1; also recorded: improved efficacy” in series [3] (lipid encapsulated ODN, PS backbone, 100 μg ODN + 20 μg OVA s.c. q7d×3). For the same substance, the “percentage of tumor free animals” value in series [3] (lipid encapsulated ODN, FIG. 19A) is “greater percentage of tumor free animals”. Also, the “number of animals remaining in the study” value in series [3] (lipid encapsulated ODN, FIG. 19B) is recorded as “essentially identical throughout the study”. Further, the “survival rate of mice” value in series [3] (lipid encapsulated ODN, versus unmethylated counterpart) is on record as “increase in the survival rate”.

The values above are taken from US20040013649A1, “Cancer vaccines and methods of using the same” (Inex Pharmaceuticals Corporation, priority 2002, published 2004).
